The supplement of paper PMC12463676, “Small-molecule dissolution of stress granules by redox modulation benefits ALS models” (Nature Chemical Biology, 2025)

How the values were obtained:
[1] = compound: NC(=O)CCCCC1CCSS1 [lipoamide]; test: thermal stability z-score vs DMSO; higher = more thermally stabilized by treatment; conditions: HeLa, lipoamide concentration 100 µM
Experimental: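 Cellular thermal proteome profiling in HeLa cells. Cells were treated with 100 µM lipoamide for 1 h, with or without 1 mM arsenate for a further 1 h, then heated to ten temperatures (37-66.3 °C), and soluble protein was quantified by TMT mass spectrometry relative to 0.1% DMSO controls. The thermal stability score (sum of log2 fold changes minus the abundance score) was transformed to a z-score; mean of n = 3 experiments.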

[2] = compound: O=[As]([O-])(O)O.[K+] [potassium arsenate]; test: as above; conditions: HeLa; arsenate concentration 1 mM
Experimental: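 Cellular thermal proteome profiling in HeLa cells treated with 1 mM arsenate for 1 h (DMSO pretreatment), heated to ten temperatures (37-66.3 °C). Soluble protein was quantified by TMT mass spectrometry relative to DMSO controls; the thermal stability score was transformed to a z-score; mean of n = 3 experiments.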

[3] = arsenate co-treatment: 1 mM arsenate 1 h
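Further: each temperature applied for 3 min, abundance score taken as mean log2 fold change at the two lowest temperatures, z-score obtained by mean subtraction and division by SD.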

Chain of UniProt P42566 (P42566 whole entry): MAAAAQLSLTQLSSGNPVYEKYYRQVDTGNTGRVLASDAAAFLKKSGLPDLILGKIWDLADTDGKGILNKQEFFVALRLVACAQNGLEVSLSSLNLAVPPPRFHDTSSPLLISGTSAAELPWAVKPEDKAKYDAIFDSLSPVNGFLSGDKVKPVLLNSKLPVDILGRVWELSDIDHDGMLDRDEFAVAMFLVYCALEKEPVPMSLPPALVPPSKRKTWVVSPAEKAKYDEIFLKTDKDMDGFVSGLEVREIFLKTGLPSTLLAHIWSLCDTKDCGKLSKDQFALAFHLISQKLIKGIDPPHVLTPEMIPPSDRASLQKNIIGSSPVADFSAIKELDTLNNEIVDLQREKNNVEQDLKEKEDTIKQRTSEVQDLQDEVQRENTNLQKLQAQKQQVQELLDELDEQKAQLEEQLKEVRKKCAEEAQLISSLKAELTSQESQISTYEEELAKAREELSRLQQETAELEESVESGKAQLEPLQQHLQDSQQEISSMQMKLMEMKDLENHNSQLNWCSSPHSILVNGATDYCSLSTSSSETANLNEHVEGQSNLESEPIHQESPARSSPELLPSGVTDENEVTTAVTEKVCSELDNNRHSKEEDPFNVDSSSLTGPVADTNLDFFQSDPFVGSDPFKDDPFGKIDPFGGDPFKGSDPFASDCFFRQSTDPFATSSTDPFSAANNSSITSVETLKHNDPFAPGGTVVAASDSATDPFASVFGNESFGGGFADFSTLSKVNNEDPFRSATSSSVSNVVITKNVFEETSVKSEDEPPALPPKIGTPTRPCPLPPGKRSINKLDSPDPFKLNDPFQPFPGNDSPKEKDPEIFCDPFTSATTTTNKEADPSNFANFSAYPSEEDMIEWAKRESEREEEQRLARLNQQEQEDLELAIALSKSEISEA
Chain of UniProt Q96DZ1 (Q96DZ1 whole entry): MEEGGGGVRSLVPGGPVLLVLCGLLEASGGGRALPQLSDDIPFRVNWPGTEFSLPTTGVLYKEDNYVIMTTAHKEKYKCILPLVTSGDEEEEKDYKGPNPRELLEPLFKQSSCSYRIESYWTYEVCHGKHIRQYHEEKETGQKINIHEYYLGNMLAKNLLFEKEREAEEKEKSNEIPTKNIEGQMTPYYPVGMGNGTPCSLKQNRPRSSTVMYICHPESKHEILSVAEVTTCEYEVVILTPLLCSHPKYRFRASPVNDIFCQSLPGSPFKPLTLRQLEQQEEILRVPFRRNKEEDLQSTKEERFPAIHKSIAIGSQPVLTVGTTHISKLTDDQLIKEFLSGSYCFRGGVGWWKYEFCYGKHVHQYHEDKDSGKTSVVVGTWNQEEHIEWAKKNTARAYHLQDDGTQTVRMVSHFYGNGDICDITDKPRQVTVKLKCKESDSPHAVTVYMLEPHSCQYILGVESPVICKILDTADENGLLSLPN
Chain of UniProt Q9H501 (Q9H501 whole entry): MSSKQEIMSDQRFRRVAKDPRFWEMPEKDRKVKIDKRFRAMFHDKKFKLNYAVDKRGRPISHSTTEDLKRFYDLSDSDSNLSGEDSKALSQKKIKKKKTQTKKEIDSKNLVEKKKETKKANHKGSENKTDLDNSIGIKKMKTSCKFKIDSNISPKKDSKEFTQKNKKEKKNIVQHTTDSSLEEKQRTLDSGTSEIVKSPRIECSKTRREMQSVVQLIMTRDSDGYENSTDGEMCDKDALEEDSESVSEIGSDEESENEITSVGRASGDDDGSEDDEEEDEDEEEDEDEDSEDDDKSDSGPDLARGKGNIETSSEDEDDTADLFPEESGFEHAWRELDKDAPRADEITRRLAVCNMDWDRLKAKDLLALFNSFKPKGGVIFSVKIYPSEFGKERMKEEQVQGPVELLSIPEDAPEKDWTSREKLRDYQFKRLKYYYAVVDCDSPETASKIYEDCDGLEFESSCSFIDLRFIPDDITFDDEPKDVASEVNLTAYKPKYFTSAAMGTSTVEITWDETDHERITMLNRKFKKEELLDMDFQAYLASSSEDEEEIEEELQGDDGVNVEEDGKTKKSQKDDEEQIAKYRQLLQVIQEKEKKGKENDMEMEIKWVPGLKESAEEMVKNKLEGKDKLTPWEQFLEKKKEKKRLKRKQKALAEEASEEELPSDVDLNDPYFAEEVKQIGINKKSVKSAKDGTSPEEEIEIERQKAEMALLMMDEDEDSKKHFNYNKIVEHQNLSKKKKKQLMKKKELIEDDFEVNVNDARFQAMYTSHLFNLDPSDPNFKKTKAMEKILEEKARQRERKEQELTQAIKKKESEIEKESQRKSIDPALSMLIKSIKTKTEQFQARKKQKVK
Chain of UniProt Q01844 (Q01844 whole entry): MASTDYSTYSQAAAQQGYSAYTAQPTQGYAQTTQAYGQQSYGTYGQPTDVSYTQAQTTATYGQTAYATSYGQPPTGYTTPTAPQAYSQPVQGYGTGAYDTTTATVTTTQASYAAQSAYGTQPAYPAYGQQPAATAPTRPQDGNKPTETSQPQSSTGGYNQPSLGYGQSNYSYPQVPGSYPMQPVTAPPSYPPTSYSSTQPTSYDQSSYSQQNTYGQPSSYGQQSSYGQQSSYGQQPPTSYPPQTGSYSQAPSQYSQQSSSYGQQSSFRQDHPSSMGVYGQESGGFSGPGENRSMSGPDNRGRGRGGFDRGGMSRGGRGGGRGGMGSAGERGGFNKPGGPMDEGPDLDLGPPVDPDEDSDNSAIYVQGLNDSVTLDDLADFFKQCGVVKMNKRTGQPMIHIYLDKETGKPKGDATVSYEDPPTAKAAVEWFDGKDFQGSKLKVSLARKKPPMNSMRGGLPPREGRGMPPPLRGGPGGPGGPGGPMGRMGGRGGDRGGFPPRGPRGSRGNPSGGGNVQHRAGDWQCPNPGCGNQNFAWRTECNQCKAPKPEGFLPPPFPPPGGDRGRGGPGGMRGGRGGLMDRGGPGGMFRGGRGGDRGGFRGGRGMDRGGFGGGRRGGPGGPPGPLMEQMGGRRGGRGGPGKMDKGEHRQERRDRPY
Chain of UniProt O95208 (O95208 whole entry): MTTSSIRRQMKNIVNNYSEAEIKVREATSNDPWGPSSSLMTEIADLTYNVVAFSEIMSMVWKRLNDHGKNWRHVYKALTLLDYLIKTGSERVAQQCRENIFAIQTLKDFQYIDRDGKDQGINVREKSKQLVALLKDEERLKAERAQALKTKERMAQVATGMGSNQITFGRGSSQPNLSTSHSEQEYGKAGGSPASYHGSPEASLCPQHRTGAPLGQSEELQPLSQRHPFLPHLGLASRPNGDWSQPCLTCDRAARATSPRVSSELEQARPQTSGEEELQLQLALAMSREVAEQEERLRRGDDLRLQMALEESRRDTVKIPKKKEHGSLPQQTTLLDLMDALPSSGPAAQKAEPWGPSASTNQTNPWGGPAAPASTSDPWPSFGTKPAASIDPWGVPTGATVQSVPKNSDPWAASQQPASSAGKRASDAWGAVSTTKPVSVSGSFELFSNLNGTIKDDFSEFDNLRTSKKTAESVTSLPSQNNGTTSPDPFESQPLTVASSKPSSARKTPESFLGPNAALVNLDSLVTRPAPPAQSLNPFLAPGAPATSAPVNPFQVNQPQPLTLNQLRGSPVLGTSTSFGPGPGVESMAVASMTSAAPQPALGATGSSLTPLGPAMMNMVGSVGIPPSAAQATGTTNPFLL
Chain of UniProt Q96RQ1 (Q96RQ1 whole entry): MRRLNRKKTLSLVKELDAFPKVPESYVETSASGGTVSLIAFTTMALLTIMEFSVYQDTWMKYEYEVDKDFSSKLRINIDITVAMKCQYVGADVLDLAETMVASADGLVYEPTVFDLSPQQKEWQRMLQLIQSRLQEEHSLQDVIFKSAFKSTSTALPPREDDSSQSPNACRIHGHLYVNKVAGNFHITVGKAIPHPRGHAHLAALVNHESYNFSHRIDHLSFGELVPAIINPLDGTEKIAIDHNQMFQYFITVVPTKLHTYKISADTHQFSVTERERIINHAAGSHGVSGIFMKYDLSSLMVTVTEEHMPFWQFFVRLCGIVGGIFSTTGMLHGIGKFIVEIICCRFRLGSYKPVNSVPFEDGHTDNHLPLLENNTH
Chain of UniProt O75477 (O75477 whole entry): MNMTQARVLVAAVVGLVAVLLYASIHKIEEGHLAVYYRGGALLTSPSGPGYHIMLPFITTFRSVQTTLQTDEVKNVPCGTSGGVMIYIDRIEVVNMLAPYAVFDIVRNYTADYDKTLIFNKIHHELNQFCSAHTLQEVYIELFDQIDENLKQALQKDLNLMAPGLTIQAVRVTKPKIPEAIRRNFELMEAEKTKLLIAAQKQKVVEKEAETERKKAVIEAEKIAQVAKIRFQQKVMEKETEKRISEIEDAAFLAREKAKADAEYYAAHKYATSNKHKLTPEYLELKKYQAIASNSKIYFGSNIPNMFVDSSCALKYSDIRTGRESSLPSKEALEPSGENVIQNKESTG
Chain of UniProt P13804 (P13804 whole entry): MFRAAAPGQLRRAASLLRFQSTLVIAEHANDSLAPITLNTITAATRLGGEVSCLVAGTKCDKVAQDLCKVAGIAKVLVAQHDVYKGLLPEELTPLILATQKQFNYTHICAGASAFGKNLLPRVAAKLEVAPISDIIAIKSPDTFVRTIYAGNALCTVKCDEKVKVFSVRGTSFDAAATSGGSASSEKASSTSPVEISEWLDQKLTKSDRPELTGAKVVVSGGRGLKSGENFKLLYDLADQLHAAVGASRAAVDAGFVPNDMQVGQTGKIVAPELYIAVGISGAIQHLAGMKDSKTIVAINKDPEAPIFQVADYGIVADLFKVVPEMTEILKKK

Target EPHB4 (UniProt P54760) has a thermal stability z-score [1, 3] of -0.297, a thermal stability z-score ([1]; arsenate co-treatment: none) of -0.194 and a thermal stability z-score [2] of 0.295.
EPHX1 (UniProt P07099) was tested, and the thermal stability z-score [1, 3] was 3.16, the thermal stability z-score ([1]; arsenate co-treatment: none) was 3.19 and the thermal stability z-score [2] was 0.24.
EPM2AIP1 (UniProt Q7L775) was tested, and the thermal stability z-score [1, 3] was -0.0474, the thermal stability z-score ([1]; arsenate co-treatment: none) was 0.0432 and the thermal stability z-score [2] was -0.0491.
Work on EPN1 (UniProt Q9Y6I3) yielded a thermal stability z-score [1, 3] of 0.241, a thermal stability z-score ([1]; arsenate co-treatment: none) of 0.408 and a thermal stability z-score [2] of 0.491.
EPN2 (UniProt O95208) was tested, and the thermal stability z-score [1, 3] was 1.13, the thermal stability z-score ([1]; arsenate co-treatment: none) was 0.804 and the thermal stability z-score [2] was -0.0882.
With EPPK1 (UniProt P58107) the thermal stability z-score [1, 3] was -0.00734, the thermal stability z-score ([1]; arsenate co-treatment: none) was 0.0541 and the thermal stability z-score [2] was -0.359.
For EPRS (UniProt P07814), the thermal stability z-score [1, 3] was -0.648, the thermal stability z-score ([1]; arsenate co-treatment: none) was -0.436 and the thermal stability z-score [2] was 0.432.
EPS8L2 (UniProt Q9H6S3) showed a thermal stability z-score [1, 3] of 0.124, a thermal stability z-score ([1]; arsenate co-treatment: none) of 0.0219 and a thermal stability z-score [2] of 1.1.
For EPS15 (UniProt P42566), the thermal stability z-score [1, 3] was -0.339, the thermal stability z-score ([1]; arsenate co-treatment: none) was -0.0217 and the thermal stability z-score [2] was -0.469.
EPS15L1 (UniProt Q9UBC2) gave a thermal stability z-score [1, 3] of 0.0401, a thermal stability z-score ([1]; arsenate co-treatment: none) of 0.0523 and a thermal stability z-score [2] of 0.4.
With ERAL1 (UniProt O75616) the thermal stability z-score [1, 3] was -0.329, the thermal stability z-score ([1]; arsenate co-treatment: none) was -0.113 and the thermal stability z-score [2] was -0.45.
For ERAP1 (UniProt Q9NZ08), the thermal stability z-score [1, 3] was -2.65, the thermal stability z-score ([1]; arsenate co-treatment: none) was -2.68 and the thermal stability z-score [2] was 0.97.
ERBB2 (UniProt P04626) showed a thermal stability z-score [1, 3] of 0.166, a thermal stability z-score ([1]; arsenate co-treatment: none) of 0.0799 and a thermal stability z-score [2] of 0.0442.
Work on ERBB2IP (UniProt Q96RT1) yielded a thermal stability z-score [1, 3] of 0.354, a thermal stability z-score ([1]; arsenate co-treatment: none) of -0.307 and a thermal stability z-score [2] of -1.94.
In the case of ERC1 (UniProt Q8IUD2), the thermal stability z-score [1, 3] is reported as -0.3, the thermal stability z-score ([1]; arsenate co-treatment: none) is reported as -0.166 and the thermal stability z-score [2] is reported as 0.574.
Target ERCC1 (UniProt P07992) has a thermal stability z-score [1, 3] of -0.168, a thermal stability z-score ([1]; arsenate co-treatment: none) of 0.0263 and a thermal stability z-score [2] of 0.0982.
ERCC2 (UniProt P18074) showed a thermal stability z-score [1, 3] of 0.408, a thermal stability z-score ([1]; arsenate co-treatment: none) of 0.701 and a thermal stability z-score [2] of 0.0533.
With ERCC3 (UniProt P19447) the thermal stability z-score [1, 3] was 0.0686, the thermal stability z-score ([1]; arsenate co-treatment: none) was 0.0573 and the thermal stability z-score [2] was 0.156.
ERCC4 (UniProt Q92889) was tested, and the thermal stability z-score [1, 3] was -0.252, the thermal stability z-score ([1]; arsenate co-treatment: none) was 0.00197 and the thermal stability z-score [2] was -0.123.
ERCC5 (UniProt P28715) was tested, and the thermal stability z-score [1, 3] was 0.121, the thermal stability z-score ([1]; arsenate co-treatment: none) was 0.0638 and the thermal stability z-score [2] was 0.401.
ERCC6 showed a thermal stability z-score [1, 3] of 1.08, a thermal stability z-score ([1]; arsenate co-treatment: none) of 0.347 and a thermal stability z-score [2] of -0.581.
ERCC6L (UniProt Q2NKX8) gave a thermal stability z-score [1, 3] of -0.457, a thermal stability z-score ([1]; arsenate co-treatment: none) of -0.258 and a thermal stability z-score [2] of 0.265.
Work on ERGIC1 (UniProt Q969X5) yielded a thermal stability z-score [1, 3] of -1.39, a thermal stability z-score ([1]; arsenate co-treatment: none) of -1.4 and a thermal stability z-score [2] of 0.483.
For ERGIC2 (UniProt Q96RQ1), the thermal stability z-score [1, 3] was -0.942, the thermal stability z-score ([1]; arsenate co-treatment: none) was -0.866 and the thermal stability z-score [2] was -0.232.
With ERGIC3 (UniProt Q9Y282) the thermal stability z-score [1, 3] was -1.11, the thermal stability z-score ([1]; arsenate co-treatment: none) was -0.784 and the thermal stability z-score [2] was -0.464.
ERI1 (UniProt Q8IV48) was tested, and the thermal stability z-score [1, 3] was 0.0943, the thermal stability z-score ([1]; arsenate co-treatment: none) was 0.343 and the thermal stability z-score [2] was -1.14.
In the case of ERI3 (UniProt O43414), the thermal stability z-score [1, 3] is reported as 0.468, the thermal stability z-score ([1]; arsenate co-treatment: none) is reported as 0.154 and the thermal stability z-score [2] is reported as 0.102.
In the case of ERLEC1 (UniProt Q96DZ1), the thermal stability z-score [1, 3] is reported as -2.84, the thermal stability z-score ([1]; arsenate co-treatment: none) is reported as -2.07 and the thermal stability z-score [2] is reported as 0.593.
Work on ERLIN1 (UniProt O75477) yielded a thermal stability z-score [1, 3] of -3.16, a thermal stability z-score ([1]; arsenate co-treatment: none) of -2.57 and a thermal stability z-score [2] of -1.15.
ERLIN2 (UniProt O94905) gave a thermal stability z-score [1, 3] of -1.05, a thermal stability z-score ([1]; arsenate co-treatment: none) of -0.752 and a thermal stability z-score [2] of -0.0487.
With ERMP1 (UniProt Q7Z2K6) the thermal stability z-score [1, 3] was 0.0556, the thermal stability z-score ([1]; arsenate co-treatment: none) was -0.119 and the thermal stability z-score [2] was 0.227.
ERO1A (UniProt Q96HE7) gave a thermal stability z-score [1, 3] of -0.923, a thermal stability z-score ([1]; arsenate co-treatment: none) of 0.193 and a thermal stability z-score [2] of 0.59.
For ERP29 (UniProt P30040), the thermal stability z-score [1, 3] was -0.51, the thermal stability z-score ([1]; arsenate co-treatment: none) was -0.193 and the thermal stability z-score [2] was 0.32.
Work on ERP44 (UniProt Q9BS26) yielded a thermal stability z-score [1, 3] of -2.86, a thermal stability z-score ([1]; arsenate co-treatment: none) of -2.35 and a thermal stability z-score [2] of 0.885.
For ESD (UniProt P10768), the thermal stability z-score [1, 3] was -0.53, the thermal stability z-score ([1]; arsenate co-treatment: none) was -0.395 and the thermal stability z-score [2] was 0.445.
ESF1 (UniProt Q9H501) gave a thermal stability z-score [1, 3] of 0.105, a thermal stability z-score ([1]; arsenate co-treatment: none) of 0.129 and a thermal stability z-score [2] of 0.24.
Target ESPL1 (UniProt Q14674) has a thermal stability z-score [1, 3] of 0.424, a thermal stability z-score ([1]; arsenate co-treatment: none) of -0.509 and a thermal stability z-score [2] of 1.94.
With ESRP2 (UniProt Q9H6T0) the thermal stability z-score [1, 3] was -0.121, the thermal stability z-score ([1]; arsenate co-treatment: none) was 0.00175 and the thermal stability z-score [2] was 0.0815.
With ESYT1 (UniProt Q9BSJ8) the thermal stability z-score [1, 3] was -0.86, the thermal stability z-score ([1]; arsenate co-treatment: none) was -0.642 and the thermal stability z-score [2] was 0.595.
Work on ESYT2 (UniProt A0FGR8) yielded a thermal stability z-score [1, 3] of -0.934, a thermal stability z-score ([1]; arsenate co-treatment: none) of -0.479 and a thermal stability z-score [2] of -0.306.
ETF1 (UniProt P62495) showed a thermal stability z-score [1, 3] of 0.635, a thermal stability z-score ([1]; arsenate co-treatment: none) of 0.513 and a thermal stability z-score [2] of -0.148.
With ETFA (UniProt P13804) the thermal stability z-score [1, 3] was -0.622, the thermal stability z-score ([1]; arsenate co-treatment: none) was 0.0342 and the thermal stability z-score [2] was -1.17.
Target ETFB (UniProt P38117) has a thermal stability z-score [1, 3] of -0.321, a thermal stability z-score ([1]; arsenate co-treatment: none) of 0.54 and a thermal stability z-score [2] of -1.2.
ETFDH (UniProt Q16134) gave a thermal stability z-score [1, 3] of 0.283, a thermal stability z-score ([1]; arsenate co-treatment: none) of 0.37 and a thermal stability z-score [2] of -0.886.
In the case of ETHE1 (UniProt O95571), the thermal stability z-score [1, 3] is reported as 0.217, the thermal stability z-score ([1]; arsenate co-treatment: none) is reported as -0.107 and the thermal stability z-score [2] is reported as 0.0234.
With ETNK1 (UniProt Q9HBU6) the thermal stability z-score [1, 3] was 0.392, the thermal stability z-score ([1]; arsenate co-treatment: none) was 1.06 and the thermal stability z-score [2] was 0.244.
EVI5 (UniProt O60447) showed a thermal stability z-score [1, 3] of -0.272, a thermal stability z-score ([1]; arsenate co-treatment: none) of 0.322 and a thermal stability z-score [2] of 0.704.
EVL (UniProt Q9UI08) gave a thermal stability z-score [1, 3] of -0.0697, a thermal stability z-score ([1]; arsenate co-treatment: none) of 0.187 and a thermal stability z-score [2] of -0.462.
EVPL (UniProt Q92817) gave a thermal stability z-score [1, 3] of 0.263, a thermal stability z-score ([1]; arsenate co-treatment: none) of 0.134 and a thermal stability z-score [2] of 0.499.
Target EWSR1 (UniProt Q01844) has a thermal stability z-score [1, 3] of 0.0495, a thermal stability z-score ([1]; arsenate co-treatment: none) of 0.235 and a thermal stability z-score [2] of -0.604.
EXD2 (UniProt Q9NVH0) gave a thermal stability z-score [1, 3] of -0.228, a thermal stability z-score ([1]; arsenate co-treatment: none) of -0.168 and a thermal stability z-score [2] of -0.499.
EXOC1 (UniProt Q9NV70) was tested, and the thermal stability z-score [1, 3] was -0.268, the thermal stability z-score ([1]; arsenate co-treatment: none) was 0.043 and the thermal stability z-score [2] was 0.0191.
EXOC2 (UniProt Q96KP1) was tested, and the thermal stability z-score [1, 3] was -0.195, the thermal stability z-score ([1]; arsenate co-treatment: none) was -0.453 and the thermal stability z-score [2] was 0.575.
EXOC3 (UniProt O60645) was tested, and the thermal stability z-score [1, 3] was -0.653, the thermal stability z-score ([1]; arsenate co-treatment: none) was -0.0663 and the thermal stability z-score [2] was 0.149.
Target EXOC4 (UniProt Q96A65) has a thermal stability z-score [1, 3] of -0.433, a thermal stability z-score ([1]; arsenate co-treatment: none) of -0.0966 and a thermal stability z-score [2] of 0.0526.
